The record followed here is US20220288102A1, “Compounds for Hepatitis B Treatment” (Agency for Science, Technology and Research, priority 2019, published 2022).

Series [1] has as its system HBsAg. Put plainly: HBsAg inhibition in HepG2 2.15 cells (primary screen and dose response, HBsAg ELISA). The conditions noted are these: for percentage inhibition curve (HBsAg) / HBsAg inhibition, dose response curve: 8-point dose response in HepG2 2.15 cells starting from 30 μM; for percentage inhibition curve (HBsAg): FIG. 4; for IC50: Hepatitis B virus, HepG2.2.15, read-out: IC50 (HBsAg). It counts as cell-based, Hepatitis B virus. On the procedure: HBsAg ELISA. HBsAg ELISA was carried out as described in detail below. In brief 25 μL of the cell culture supernatant was collected at the indicated timepoints on the figure legends and was used for the HBsAg ELISA.
Procedure • 1. Coat microwells with 25 ul per well of mouse monoclonal [86C] diluted in coating buffer (6 ug per ml; 300 ul from 0.2 mg/ml stock in 10 ml of coating buffer)(150 ng/well). • 2. Seal plate and incubate overnight at 4° C. • 3. Aspirate wells and wash 3 times with 50 ul/well of wash buffer. • 4. After last wash, invert plate and blot on c-towel and spin 1000 rpm for 1 min to remove residual solution. • 5. Block plates with 75 ul/well of assay diluent. Incubate at RT for 2 hrs. • 6. Aspirate/wash as in step 3. • 7. Prepare 4000 ng/ml of active HBS Ag (Adw) full length protein in assay diluent and titrate 2 fold for 12 different decreasing concentration. Pipette 25 ul of sample and different dilutions of active HepB surface Ag (Adw) into appropriate wells. Seal plate and incubate for 2 hrs at RT. • 8. Aspirate/wash as in step 3 but with total 5 washes. • 9. Add 25 ul of working detector (Rabbit polyclonal to HBS-Biotin (4500 ng/ml)+SAv-HRP (1:1000) reagent to each well. Seal plate and incubate for 1 hr at RT. • 10. Aspirate/wash as in step 3 but for 7 washes. • 11. Add 25 ul of TMB substrate solution to each well and incubate plate for 30 minutes at RT in dark. • 12. Add 25 ul of stop solution (1N HCl) to each well, read absorbance at 450 nm within 30 minutes of stopping reaction.
In block 205, a primary screen of the library of compounds was done in HepG2 2.15 cells to determine the inhibitory activity of HBsAg (the surface antigen of the Hepatitis B virus which indicates hepatitis B infection in patients) and parallel cytotoxicity. In block 310, the hit compounds (“HITS” or “HITs”) were determined by identifying compounds with certain criteria. […] For example, the compounds may be tested at 3 μM (data shown herein) or 10 μM.
A secondary screen of the hit compounds was done to determine the EC50 of the hit compounds.
Background: An ELISA detects its analyte on a solid surface through an enzyme-linked reagent.

The nature of series [2]: Cytotoxicity in HepG2 2.15 cells. The conditions noted are these: human, Hep G2 2.15 cells. It counts as cell-based. On the procedure:
In block 205, a primary screen of the library of compounds was done in HepG2 2.15 cells to determine the inhibitory activity of HBsAg (the surface antigen of the Hepatitis B virus which indicates hepatitis B infection in patients) and parallel cytotoxicity. In block 310, the hit compounds (“HITS” or “HITs”) were determined by identifying compounds with certain criteria. […] In the preliminary screen, the compounds are typically tested at higher concentrations than expected and may lead to greater than desired cytotoxicity (>20%). For example, the compounds may be tested at 3 μM (data shown herein) or 10 μM. However, the compound was subsequently further tested in a proper dose response manner (described below) to determine whether the drug is able to elicit the antiviral response (decrease in HBsAg levels) with low cytotoxicity (i.e. <20% cytotoxicity).
From the primary high throughput screen of 151 epigenetic modulators in the SelleckChem compound library at a 3 μM concentration, 16 hit compounds were identified to have good antiviral activity resulting in high HBsAg loss (>50%) and low cytotoxicity (<20%) and the results are shown in FIG. 3.
A secondary screen of the hit compounds was done to determine the EC50 of the hit compounds. […] Some of the other compounds were determined to be less suitable. […] The MI-2 EC50 is very high and appers to be dependent on the toxic nature of the compound and was not a viable option. The percentage inhibition curve of MC1568, OF-1 and tofacitinib in FIG. 4 are close to 0 in the vertical axis and may not be readily seen in FIG. 4. It may be seen that the secondary screen is able to filter off unsuitable compounds from the primary screen.

Series [3] concerns HBsAg. The experiment in a line: HBsAg ELISA in HBV-infected primary human hepatocytes. The conditions noted are these: 3 μM. It counts as cell-based, Hepatitis B virus. How it is done:
HBV infection of PHH. Primary human hepatocytes were infected at […] in presence of 4% PEG8000 and 1% DMSO as described earlier. The samples, cell lysate for RNA and or DNA as well as cell culture supernatant were harvested at indicated timepoints on figure legends.
Procedure • 1. […] Seal plate and incubate overnight at 4° C. • 3. […] Block plates with 75 ul/well of assay diluent. Incubate at RT for 2 hrs. • 6. Aspirate/wash as in step 3. • 7.
(§1) FIG. 8 briefly describes an experimental model of the method to infect the cells with HBV, treatment with drugs, and subsequent analysis. The primary human hepatocytes were seeded in a 96 well plate coated with Collagen I (30 minutes at room temperature) with DMSO (1%) induction. The next day, the cells were infected with purified HBV with a multiplicity of infection (MOI) of 500 (i.e. the ratio of the infection agent (HBV) to the infection target (cell)) in media containing 4% polyethylene glycol 8000 (PEG-8000) and 1% DMSO (day 0). On the next day, the infected cells were washed vigorously to remove excess virus by washing 3 times without removing the spent media completely and treated with the test compounds at 3 μM concentration (day 1). In addition. the supernatant was collected at day 3 and the cells pulsed again with the test compounds at 3 μM concentration. At day 5, the supernatant was collected for analysis with the HBsAg ELISA and finally at day 8 cells were lysed for DNA isolation, eHBV analysis and cccDNA analysis. This allows comparison of the effects of the compounds on day 3 and day 5. Some of the cells were fixed, permeabalized and stained with antibody to HBcAg to determine HBcAg levels via IFA.

For a further series, the system named is HBV in HepAD38.7 cells. Put plainly: Secondary validation of the drug screen in HepAD38.7 cells. Format: cell-based, Hepatitis B virus. On the procedure: In block 215, a secondary screen was conducted to determine the EC50 values (the effective concentration to obtain 50% activity or inhibition) of the HIT compounds. In block 220, the hit compounds were tested in HEPAD38.7 HBV live infection models to determine the robustness of the hit compounds, i.e. whether the hit compounds are effective. In block 225, the novel lead compounds or scaffold structures are identified and mechanism of action (MOA) studies for target engagement were developed. In block 230, the lead compound is optimised and validated or if the compound is known but for a different non-biological use or biological target, the compound may be repurposed for the inhibition of HBV. In block 235, the efficacy of the compound was determined in animal models.
A secondary validation of the drug screen in HepAD38.7 cells and a functional gene knockdown using Lipofectamine 3000 reagent was also performed. The genes selected were the annotated targets of the selected epigenetic inhibitors.

Another series deals with cccDNA. The experiment in a line: cccDNA (qPCR) in infected primary human hepatocytes. It counts as cell-based, Hepatitis B virus. The conditions noted are these: HBVcc-infected primary human hepatocytes, compound treatment 3 μM. On the procedure:
The DNA is isolated from the cellular lysate, purification with Plasmid safe ATP-dependent DNAse is performed to remove non-circular DNAs (relaxed circular DNA). cccDNA levels are then measure using a Taqman-probe based quantitative polymerase chain reaction.
as §1, with “Some of the cells were fixed, permeabalized and stained with antibody to HBcAg to determine HBcAg levels via IFA.” left out
For orientation: Real-time PCR tracks product formation cycle by cycle.

Another series has as its system extracellular HBV DNA. Put plainly: Extracellular HBV DNA (qPCR) in infected primary human hepatocytes. It counts as cell-based, Hepatitis B virus. The conditions noted are these: HBVcc-infected primary human hepatocytes, compound treatment 3 μM. How it is done:
HBV extracellular DNA was extracted from 200 μL of cell culture supernatant collected at the end of the experiment as indicated on the figure legends. DNA was extracted according to the QIAamp DNA Mini Kit (Qiagen).
as §1

For series [4], the system named is primary human hepatocytes. Put plainly: Cytotoxicity (CCK-8) in infected primary human hepatocytes. It counts as cell-based. The conditions noted are these: 3 μM.

Entries after “also recorded” stand apart in the source; their conditions may differ.

Turning to `C[C@@H]1CCN(C(=O)CC#N)C[C@@H]1N(C)c1ncnc2[nH]ccc12` [Tofacitinib], in the series with HBsAg [1], the “percentage inhibition curve (HBsAg)” value was about 0%.
In the case of `CCCc1cc2c(N3CCN(C4=NCC(C)(C)S4)CC3)ncnc2s1` [MI-2], the EC50 entry with HBsAg [1] (secondary screen, HepG2 2.15 cells) is given as “very high”.
As to `CN1CCc2c(c3ccccc3n2Cc2ccc(C(=O)NO)cc2)C1.Cl` [Tubastatin A HCl, Tubastatin A hydrochloride salt], in series [2], 7.21 µM corresponded to half-maximal inhibition (IC50). In the series with HBsAg [3] (Day 3 and Day 5, hydrochloride salt), the HBsAg levels result is reported as “reduces HBsAg levels more than Entecavir; also recorded: lowest HBsAg levels”. For the same compound, in the series on HBV in HepAD38.7 cells, the “antiviral effect in HepAD38 cells” value is reported as “significantly higher antiviral activity”. In the series on HBsAg [1], the “HBsAg inhibition, dose response curve” value is reported as “suitable dose response curve” and the IC50 is 2 µM.
On to `CCCCN(Cc1ccc(C(=O)NO)cc1)C(=O)Nc1ccccc1` [Nexturastat A], for which the IC50 in series [2] was determined as 3.58 µM; in the series on HBsAg [1], 0.98 µM. For the same compound, the HBsAg levels entry in the series with HBsAg [3] (Day 3 and Day 5) is “reduces HBsAg levels more than Entecavir”. The “antiviral effect in HepAD38 cells” value in the series on HBV in HepAD38.7 cells is reported as “significantly higher antiviral activity”. Moreover, the “HBsAg inhibition, dose response curve” value in the series with HBsAg [1] is listed as “suitable dose response curve”.
Take `CCS(=O)(=O)c1cccc(-c2cc(C(=O)NC3CCN(C)CC3)c(C)c3[nH]c4ncc(C)cc4c23)c1` [TAK-901]: the IC50 in series [2] stood at 11 µM. Also, the HBsAg levels entry in the series on HBsAg [3] (Day 3 and Day 5) is “reduces HBsAg levels more than Entecavir”. Besides, the “antiviral effect in HepAD38 cells” value in the series with HBV in HepAD38.7 cells is listed as “significantly higher antiviral activity”. Besides, the “cccDNA levels in the cell lysate” value in the series on cccDNA was “lowest measured cccDNA levels”. The “extracellular HBV DNA levels in the cell culture supernatant” value (shortened to “extracellular HBV DNA levels”) with extracellular HBV DNA is “reduces extracellular HBV DNA levels more than Entecavir”. Also, the “cytotoxicity level (CCK-8)” value in series [4] was “higher cytotoxicity levels”. In the series with HBsAg [1], the “HBsAg inhibition, dose response curve” value is given as “suitable dose response curve” and the IC50 turned out to be 0.4 µM.
For the compound `C=C1[C@H](CO)[C@@H](O)C[C@@H]1n1cnc2c(=O)[nH]c(N)nc21` [Entecavir], the “cytotoxicity level (CCK-8)” value in series [4] is listed as “low toxicity levels”.
As for `CC(C)c1cc2c(N3CCN(C4=NCC(C)(C)S4)CC3)ncnc2s1` [MI-3], the IC50 in series [2] amounted to 4.37 µM; in the series with HBsAg [1], 1.12 µM. Also, the “HBsAg inhibition, dose response curve” value in the series on HBsAg [1] is on record as “suitable dose response curve”.
As for `Cc1nc(N)sc1-c1ccnc(Nc2ccc(N3CCOCC3)cc2)n1` [CYC-116], the IC50 is 1.49 µM in series [2] and 0.42 µM in the series on HBsAg [1]. Further, in the series with HBsAg [3] (Day 3 and Day 5), the HBsAg levels result is recorded as “reduces HBsAg levels more than Entecavir; also recorded: lowest HBsAg levels”. For the same compound, in the series on HBV in HepAD38.7 cells, the “antiviral effect in HepAD38 cells” value is listed as “significantly higher antiviral activity”. Further, in the series on cccDNA, the “cccDNA levels in the cell lysate” value is recorded as “lowest measured cccDNA levels”. Further, the “extracellular HBV DNA levels” value with extracellular HBV DNA was “reduces extracellular HBV DNA levels more than Entecavir”. For the same compound, the “cytotoxicity level (CCK-8)” value in series [4] is given as “higher cytotoxicity levels”. Also, in the series with HBsAg [1], the “HBsAg inhibition, dose response curve” value was “suitable dose response curve”.
For `COc1cc2c(cc1NS(=O)(=O)c1ccc(Br)cc1C)n(C)c(=O)n2C` [OF-1], the “percentage inhibition curve (HBsAg)” value with HBsAg [1] is reported as about 0%.
Compound `Cc1cc(Nc2nc(N[C@@H](C)c3ccc(F)cc3)c(C#N)cc2F)n[nH]1` [AZ960] displayed an IC50 in series [2] of 0.231 µM. For the same compound, in the series on extracellular HBV DNA, the “extracellular HBV DNA levels” value is listed as “reduces extracellular HBV DNA levels more than Entecavir”. In the series with HBsAg [1], the “HBsAg inhibition, dose response curve” value is on record as “suitable dose response curve” and the IC50 came to 0.193 µM.
In the case of `COc1cc(Nc2ncc3c(n2)-c2ccc(Cl)cc2C(c2c(F)cccc2OC)=NC3)ccc1C(=O)O` [Alisertib], in the series on HBV in HepAD38.7 cells, the “antiviral effect in HepAD38 cells” value is recorded as “did not show an effect”. The “HBsAg inhibition, dose response curve” value with HBsAg [1] is “not as efficacious”.
On to `Cn1c(/C=C/C(=O)NO)ccc1/C=C/C(=O)c1cccc(F)c1` [MC-1568], for which the “percentage inhibition curve (HBsAg)” value in the series with HBsAg [1] is listed as about 0%.

What is called IC50 is the concentration needed to halve the response being measured.
